Measurements taken from patent US20120034193A1, “TREATMENT OF NEUROTROPHIC FACTOR MEDIATED DISORDERS” (priority 2009, published 2012).
Marks after values point to notes of the source that are not given here.

Assays:
Rat sensory neurones = experiment: Neuronal survival in sensory neurones; type: cell-based, Wistar rat; details: 2 days
Description: Rat sensory neurones were obtained from Wistar rat embryos on the 15th day of gestation. Cells were cultured at 37° C. in 5% CO2/95% air atmosphere. Following 2 days of culturing with sarsasapogenin, smilagenin, vehicle (DMSO, 0.25%) or NGF, sensory neurones were rinsed twice with PBS and fixed in paraformaldehyde (4%) in PBS for 30 min at 4° C. Cells were permeabilised with Triton X-100 (0.1%) and non-specific sites were saturated using foetal bovine serum. Prior to staining, cells were incubated for 2 h at room temperature with a mixture of primary antibodies: anti-neurofilament 68 and 200 in PBS containing foetal bovine serum 5%. Prior to washing, slides were demounted and the cells were washed twice with PBS for 5 min, placed in a dark room for 1 h and incubated with a secondary antibody: anti-mouse coupled with cyanine 3 (Cy3; 1/1600) and an anti-rabbit coupled with fluoroisothiocyanate (FITC; 1/200) in PBS containing foetal bovine serum (5%). Slides were washed twice with PBS for 5 min and mounted on coverslips using Mowiol, an antioxidative solution (9% w/v) in glycerol (22%) buffered with Tris/HCl ([…]; pH 8.5). Slides were left overnight at room temperature to harden and stored in light protected conditions. Slides were viewed using a DAPI/FITC/Cy3 triple filter microscope with a ×20 objective. A series of photographs per well were taken at random using a digital camera.

[1] = system: Rat dopaminergic neurones; experiment: Pre-treatment against MPP+-induced loss of dopaminergic neurones; type: cell-based; details: 30 nM, 24 h before and during MPP+ 2 μM 48 h
Description: Rat dopaminergic neurones were cultured as previously described (Schinelli et al., Journal of Neurochemistry, 1988, 50, pp. 1900-1907). On day 5, the cultures were washed and placed in fresh medium containing test compounds (30 nM), vehicle (DMSO, 0.25%) or a combination of BDNF (1.85 nM) and GDNF (0.17 nM) for 24 h.
Exposure of rat primary dopaminergic neurones to MPP^+ (2 μM, 24 h) causes a significant decrease in the number of dopaminergic neurones compared to the control. On day 6, MPP^+ (2 μM) was added to the cultures in the presence of test compounds, vehicle or a combination of BDNF and GDNF for a further 48 h. MPP^+ induces neuronal death, via inhibition of complex I in the mitochondria and consequent ATP depletion, resulting in the production of free radicals and induction of apoptosis. After the incubation period, the cultures were fixed with paraformaldehyde in PBS (4%). After fixation, the neurones were permeabilised with Triton ×100 (0.05%) for 30 min. The neurones were then incubated with anti-tyrosine hydroxylase (TH) at 37° C. for 2 h. The neurones were washed three times with PBS, and then incubated with goat anti mouse/Cy3 for 2 h at 37° C. The neurones were mounted and examined with the fluorescence microscopy.

Rat cortical neurones = experiment: Neuronal survival and neurite outgrowth of cortical neurones cultured in the absence of serum; type: cell-based; details: 30 nM, one day, no serum
Description: Rat cortical neurones were cultured following the method described above.
The test compounds were added for 24 h.
Rat cortical neurones were exposed to sarsasapogenin, smilagenin (30 nM) or vehicle (DMSO, 0.25%) in the absence FBS or FCS for one day. Cortical neurones were stained using a monoclonal antibody anti β-tubulin diluted and an anti mouse Immunoglobulin G diluted. These antibodies stained neurone cell bodies (quantifying the neuroprotective effect) and neurites (quantifying the neurotrophic effect). An epifluorecence microscope (magnification ×20) with a camera took 2 pictures per well (10 pictures per condition). Analyses of the number of cells labelled with anti β-tubulin antibodies and of the total number of cells was performed using LUCIA 6.0 software.

[2] = Long term oral toxicity study, non-rodents; type: in vivo; details: high doses
C57b1/6 RJ mice = experiment: Sciatic nerve crush model; type: in vivo, Mouse; details: for Degenerated fibres (% of control): nerve crush alone 109.10 ± 2.65; for Recovery of nerve function as measured by CMAP parameters (amplitude, latency, duration): sarsasapogenin 3, smilagenin 0.3 and 3 mg/kg/day, oral gavage in oil, 6 weeks
Description: The sciatic nerve crush model is a well characterised reversible model for motor neurone disease and post-traumatic nerve injuries (McMahon and Priestley, Current Opinion in Neurobiology, 1995, 5, pp. 616-624). The nerve damage is produced by mechanical pressure using haemostatic forceps, applied twice, 5 mm proximal to the trifurcation of the right sciatic nerve of these mice. […] The loss of nerve function recovers progressively over a 4-5 week period after the mechanical insult.
4-Methylcatechol (10 μg/kg/day, i.p.) was used as a positive control (Kaechi et al., Journal of Phamacology and Experimental Therapeutics, 1995, 272, pp. 1300-1304).
C57b1/6 RJ mice were anaesthetised with ketamine chlorhydrate (60 mg/kg, i.p.). The sciatic nerve was surgically exposed at mid thigh level and crushed at 5 mm proximal to the trifurcation of the sciatic nerve. The nerve was crushed twice for 30 s with a haemostatic forceps with a 90-degree rotation between each crush. […] The loss of nerve function recovered progressively over a 4-5 week period after mechanical insult. Electromyographic recordings were assessed as described above.

[3] = Tissue distribution after a single oral administration, rat; type: in vivo
BDNF = BDNF protein in culture medium of rat cortical neurones exposed to β-amyloid; type: cell-based; details: 10 μM pre-incubation 48 h, then β-amyloid 10 μg/ml 48 h
Description: Rat cortical neurones were cultured by modification of a method previously described (Eckenstein and Sofroniew, Journal of Neuroscience, 1983, 3, pp. 2286-2291). On day 8, the culture medium was changed to a medium containing vehicle (DMSO, 0.5%) or smilagenin or sarsasapogenin (10 μM). On day 10, rat primary cortical neurones were exposed to β-amyloid (10 μg/ml) for 48 h at 37° C. and the concentration of BDNF in the culture medium, the number of choline acetyltransferase (ChAT) positive cells, and the neurite outgrowth was measured (smilagenin only).

[4] = Rat F, 30 mg/kg single oral, 1 h
[5] = Rat F, 30 mg/kg single oral, 4 h
[6] = Rat F, 30 mg/kg single oral, 8 h
[7] = Rat F, 30 mg/kg single oral, 24 h
[8] = Rat F, 30 mg/kg single oral, 168 h
[9] = Rat M, 30 mg/kg single oral, 1 h
[10] = Rat M, 30 mg/kg single oral, 4 h
[11] = Rat M, 30 mg/kg single oral, 8 h
[12] = Rat M, 30 mg/kg single oral, 24 h
[13] = Rat M, 30 mg/kg single oral, 168 h
[14] = Rat F, 18 mg/kg single oral, 1 h
[15] = Rat F, 18 mg/kg single oral, 4 h
[16] = Rat F, 18 mg/kg single oral, 8 h
[17] = Rat F, 18 mg/kg single oral, 24 h
[18] = Rat F, 18 mg/kg single oral, 168 h
[19] = Rat M, 18 mg/kg single oral, 1 h
[20] = Rat M, 18 mg/kg single oral, 4 h
[21] = Rat M, 18 mg/kg single oral, 8 h
[22] = Rat M, 18 mg/kg single oral, 24 h
[23] = Rat M, 18 mg/kg single oral, 168 h

## C[C@H]1CC[C@@]2(OC1)O[C@H]1C[C@H]3[C@@H]4CC[C@@H]5C[C@@H](O)CC[C@]5(C)[C@H]4CC[C@]3(C)[C@H]1[C@@H]2C [Sarsasapogenin, sarsasapogenin]
Rat sensory neurones; 30 nM
  Neuronal survival (% of control): 130.83 ± 1.75 % of control
[1]
  Neuronal survival (% of control): 88.73 ± 4.39 % of control
Rat cortical neurones
  Neurite outgrowth (% of control): 152.85 ± 10.68 % of control
  Neuronal survival (% of control): 149.55 ± 6.22 % of control
[2]; 39 weeks in non-rodents
  Long term toxicity: without showing any signs of toxicity or adverse events
C57b1/6 RJ mice; 3 mg/kg/day oral
  Degenerated fibres (% of control): 33.50 ± 12.60 % of control
C57b1/6 RJ mice
  Recovery of nerve function as measured by CMAP parameters (amplitude, latency, duration): significantly improved the recovery of nerve function
[3]; [4]
  Concentration of compound, Brain: 1210 ng equivalents/g tissue
  Concentration of compound, Plasma: 1530 ng equivalents/g tissue
  Concentration of compound, Spinal cord: 3020 ng equivalents/g tissue
[3]; [5]
  Concentration of compound, Brain: 3860 ng equivalents/g tissue
  Concentration of compound, Plasma: 2050 ng equivalents/g tissue
  Concentration of compound, Spinal cord: 3830 ng equivalents/g tissue
[3]; [6]
  Concentration of compound, Brain: 5980 ng equivalents/g tissue
  Concentration of compound, Plasma: 1760 ng equivalents/g tissue
  Concentration of compound, Spinal cord: 5080 ng equivalents/g tissue
[3]; [7]
  Concentration of compound, Brain: 2800 ng equivalents/g tissue
  Concentration of compound, Plasma: 629 ng equivalents/g tissue
  Concentration of compound, Spinal cord: 3290 ng equivalents/g tissue
[3]; [8]
  Concentration of compound, Brain: 134 ng equivalents/g tissue
  Concentration of compound, Plasma: 90 ng equivalents/g tissue
  Concentration of compound, Spinal cord: 590 ng equivalents/g tissue
[3]; [9]
  Concentration of compound, Brain: 1140 ng equivalents/g tissue
  Concentration of compound, Plasma: 1690 ng equivalents/g tissue
  Concentration of compound, Spinal cord: 1090 ng equivalents/g tissue
[3]; [10]
  Concentration of compound, Brain: 4970 ng equivalents/g tissue
  Concentration of compound, Plasma: 2920 ng equivalents/g tissue
  Concentration of compound, Spinal cord: 4350 ng equivalents/g tissue
[3]; [11]
  Concentration of compound, Brain: 6920 ng equivalents/g tissue
  Concentration of compound, Plasma: 2970 ng equivalents/g tissue
  Concentration of compound, Spinal cord: 6060 ng equivalents/g tissue
[3]; [12]
  Concentration of compound, Brain: 3800 ng equivalents/g tissue
  Concentration of compound, Plasma: 967 ng equivalents/g tissue
  Concentration of compound, Spinal cord: 4720 ng equivalents/g tissue
[3]; [13]
  Concentration of compound, Brain: 194 ng equivalents/g tissue
  Concentration of compound, Plasma: 149 ng equivalents/g tissue
  Concentration of compound, Spinal cord: 747 ng equivalents/g tissue
BDNF
  BDNF concentration (pg/ml): 9.31 ± 0.15^++++,**** pg/ml

## C[C@@H]1CC[C@@]2(OC1)O[C@H]1C[C@H]3[C@@H]4CC[C@@H]5C[C@@H](O)CC[C@]5(C)[C@H]4CC[C@]3(C)[C@H]1[C@@H]2C [Smilagenin, smilagenin]
Rat sensory neurones; 300 nM
  Neuronal survival (% of control): 124.02 ± 7.64 % of control
[1]
  Neuronal survival (% of control): 97.91 ± 3.63 % of control
Rat cortical neurones
  Neurite outgrowth (% of control): 173.89 ± 9.23 % of control
  Neuronal survival (% of control): 155.36 ± 4.75 % of control
[2]; up to 52 weeks in non-rodents
  Long term toxicity: without showing any signs of toxicity or adverse events
C57b1/6 RJ mice; 0.3 mg/kg/day oral
  Degenerated fibres (% of control): 16.70 ± 4.23 % of control
C57b1/6 RJ mice; 3 mg/kg/day oral
  Degenerated fibres (% of control): −8.10 ± 6.03 % of control
C57b1/6 RJ mice
  Recovery of nerve function as measured by CMAP parameters (amplitude, latency, duration): significantly improved the recovery of nerve function
[3]; [14]
  Concentration of compound, Brain: 704 ng equivalents/g tissue
  Concentration of compound, Plasma: 1626 ng equivalents/g tissue
  Concentration of compound, Spinal cord: 608 ng equivalents/g tissue
[3]; [15]
  Concentration of compound, Brain: 2330 ng equivalents/g tissue
  Concentration of compound, Plasma: 1824 ng equivalents/g tissue
  Concentration of compound, Spinal cord: 2049 ng equivalents/g tissue
[3]; [16]
  Concentration of compound, Brain: 2940 ng equivalents/g tissue
  Concentration of compound, Plasma: 1658 ng equivalents/g tissue
  Concentration of compound, Spinal cord: 2823 ng equivalents/g tissue
[3]; [17]
  Concentration of compound, Brain: 954 ng equivalents/g tissue
  Concentration of compound, Plasma: 394 ng equivalents/g tissue
  Concentration of compound, Spinal cord: 1284 ng equivalents/g tissue
[3]; [18]
  Concentration of compound, Brain: 52 ng equivalents/g tissue
  Concentration of compound, Plasma: 46 ng equivalents/g tissue
  Concentration of compound, Spinal cord: 243 ng equivalents/g tissue
[3]; [19]
  Concentration of compound, Brain: 769 ng equivalents/g tissue
  Concentration of compound, Plasma: 2045 ng equivalents/g tissue
  Concentration of compound, Spinal cord: 958 ng equivalents/g tissue
[3]; [20]
  Concentration of compound, Brain: 3372 ng equivalents/g tissue
  Concentration of compound, Plasma: 3842 ng equivalents/g tissue
  Concentration of compound, Spinal cord: 3286 ng equivalents/g tissue
[3]; [21]
  Concentration of compound, Brain: 4457 ng equivalents/g tissue
  Concentration of compound, Plasma: 3896 ng equivalents/g tissue
  Concentration of compound, Spinal cord: 4520 ng equivalents/g tissue
[3]; [22]
  Concentration of compound, Brain: 1417 ng equivalents/g tissue
  Concentration of compound, Plasma: 857 ng equivalents/g tissue
  Concentration of compound, Spinal cord: 1957 ng equivalents/g tissue
[3]; [23]
  Concentration of compound, Brain: 122 ng equivalents/g tissue
  Concentration of compound, Plasma: 122 ng equivalents/g tissue
  Concentration of compound, Spinal cord: 256 ng equivalents/g tissue
BDNF
  BDNF concentration (pg/ml): 4.20 ± 0.06****^,++++ pg/ml
